According to patent publication US8367873B2, “Phenyl-substituted bicyclooctane-1,3-dione derivatives” (Bayer Cropscience AG, priority 2008, dated 2013):
Values joined by “and” are separate entries in the source; they are usually repeats but may differ in a detail not shown here. Equal entries are not always repeated.

Experiments:
maize = assay: Crop compatibility small plot trial outdoors with maize, post-emergence, with and without safener; assay type: in vivo; details: 60 g ai/ha (with safener 60 + 60)
Description: Method crop compatibility small plot trial outdoors: • Customary sowing using a single seed seeder • Plot size: 11.25 m^2/two repetitions
Treatment was carried out using a plot sprayer. The safener was applied together with the test substance as a tank mix using 300 l of water/ha (amounts of herbicide and safener are stated in g of ai/ha). Post-emergence application was carried out at the five-leaf stage of maize. Crop compatibility was assessed visually 14 and 27 days after the treatment (in percent compared to an untreated control), 100% damage=the plants have died, 0% damage=like control plants). • Outside trial with maize (Magixx Duo is cycloxidim-tolerant) • Post-Emergence Method

[1] = system: monocotylidonous and dicotylidonous weed and crop plants; assay: Herbicidal post-emergence action (other test plants); assay type: in vivo; details: post-emergence method; for herbicidal effect against AVEFA (Avena fatua): 80 g/ha
Outline: (§1)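 One-leaf-stage greenhouse plants sprayed with WP at graded amounts (600 l/ha, 0.2% wetting agent); ~3 wk later, visual % effect rated vs untreated controls, 100% = dead, 0% = like control.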

Setaria viridis [2] = assay: Herbicidal post-emergence action; assay type: in vivo; details: post-emergence method, 80 g/ha
Outline: as §1

Lolium multiflorum [3] = assay: Herbicidal post-emergence action; assay type: in vivo; details: post-emergence method; for herbicidal effect against LOLMU (Lolium multiflorum): 80 g/ha
Outline: as §1

Echinocloa crus-galli [4] = assay: Herbicidal post-emergence action; assay type: in vivo; details: post-emergence method; for herbicidal effect against ECHCG (Echinochloa crus-galli): 80 g/ha
Outline: as §1

Alopecurus myosuroides [5] = assay: Herbicidal post-emergence action; assay type: in vivo; details: post-emergence method; for herbicidal effect against ALOMY (Alopecurus myosuroides): 80 g/ha
Outline: as §1

[6] = system: monocotylidonous and dicotylidonous weed and crop plants; assay: Herbicidal pre-emergence action (other test plants); assay type: in vivo; details: pre-emergence method, 80 g/ha, greenhouse, visual assessment vs untreated controls
Outline: (§2)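 Visual percent effect relative to untreated controls (0% = like control, 100% = dead) assessed three weeks after treatment in the greenhouse. Compounds, as wettable powders in water (600 l/ha, 0.2% wetting agent), were sprayed at different amounts onto covering soil over seeds sown in sandy loam.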

cereals = assay: Container trials with cereals in the greenhouse, use of safeners (Mefenpyr 1 day prior to herbicide application); assay type: in vivo
Description: Seeds of monocotylidonous and dicotylidonous weed and crop plants are placed in sandy loam in wood fibre pots, covered with soil and cultivated in a greenhouse under good growth conditions. Two to three weeks after sowing, the test plants are treated at the one-leaf stage. The test compounds, formulated as wettable powders (WP), are then with a water application rate of 600 l/ha (converted), with 0.2% of wetting agent added, sprayed onto the green parts of the plants in different amounts. After the test plants have been kept in the greenhouse under optimum growth conditions for about three weeks, the effect of the preparations is assessed visually in comparison to untreated controls (herbicidal effect in percent: 100% effect=the plants have died, 0% effect=like control plants).
If it is to be additionally tested as to whether safeners can improve the plant compatibility of test substances in the case of crop plants, the following options are used for applying the safeners: • Seeds of the crop plants are, before sowing, dressed with safener substance (the amount of safener stated in percent, based on the weight of the seed) • Before the application of the test substances, the crop plants are sprayed with the safener at a certain application rate per hectare (usually one day before the application of the test substances) • The safener is applied together with the test substance as a tank mix (the amount of safener stated in g/ha or as a ratio, based on the herbicide).
Container Trials with Cereals in the Greenhouse

Setaria viridis [7] = assay: Herbicidal pre-emergence action; assay type: in vivo; details: pre-emergence method, 80 g/ha, greenhouse, visual assessment vs untreated controls
Outline: as §2

Lolium multiflorum [8] = assay: Herbicidal pre-emergence action; assay type: in vivo; details: pre-emergence method, 80 g/ha, greenhouse, visual assessment vs untreated controls
Outline: as §2

Echinocloa crus-galli [9] = assay: Herbicidal pre-emergence action; assay type: in vivo; details: pre-emergence method, 80 g/ha, greenhouse, visual assessment vs untreated controls
Outline: as §2

Alopecurus myosuroides [10] = assay: Herbicidal pre-emergence action; assay type: in vivo; details: pre-emergence method, 80 g/ha, greenhouse, visual assessment vs untreated controls
Outline: as §2

[11] = Penetration of active compounds through enzymatically isolated cuticles of apple tree leaves; assay type: in vitro ADME, apple trees of the cultivar Golden Delicious; details: 20° C., 60% rh
Description: Increase of penetration into the plant by ammonium or phosphonium salts and synergistic increase of penetration into the plant by ammonium/phosphonium salts in combination with penetrants.
In this test, the penetration of active compounds through enzymatically isolated cuticles of apple tree leaves was measured.
Use was made of leaves which, fully developed, were cut from apple trees of the cultivar Golden Delicious. The cuticles were isolated by • initially filling leaf discs punched out and stained with dye on the underside by vacuum infiltration with a pectinase solution (0.2 to 2% strength) buffered to a pH between 3 and 4, • […] allowing the leaf discs treated in this manner to stand until the original leaf structure has dissolved and the non-cellular cuticles have detached.
Only the cuticles, free from hairs and stoma, of the upper sides of the leaves were then used. They were washed repeatedly alternating with water and a buffer solution of pH 7. The clean cuticles obtained were then mounted on Teflon plates and smoothed and dried with a gentle stream of air.
In the next step, the cuticle membranes obtained in this manner were placed into stainless steel diffusion cells (=transport chambers) for membrane transport studies. To this end, the cuticles were placed with a pincet into the centre of the edges, coated with silicone fat, of the diffusion cells and closed with a ring, which had also been treated with fat. The arrangement was chosen such that the morphological outside of the cuticles was facing outwards, i.e. exposed to air, whereas the original inside was facing the interior of the diffusion cells.
The diffusion cells were filled with a 30% strength ethylene glycol/water solution. To determine the penetration, in each case 10 μl of the spray liquor of the composition below were applied to the outside of the cuticles. The spray liquor was prepared using local tap water of medium hardness.
After the spray liquors had been applied, the water was allowed to evaporate and the chambers were inverted and placed into thermostatic […] in which temperature and atmospheric humidity over the cuticles could be adjusted using a gentle stream of air onto the cuticles with the spray coating (20° C., 60% rh). At regular intervals, an autosampler took aliquots and the active compound content was determined by HPLC.
The stated numbers are average values of eight to ten measurements.

[12] = 10 days after application, 25 g of a.i./ha
[13] = 10 days after application, 50 g of a.i./ha
[14] = 10 days after application, 100 g of a.i./ha
[15] = 28 days after application, 50 g of a.i./ha
[16] = 28 days after application, 100 g of a.i./ha

| Compound | herbicidal effect against AVEFA (Avena fatua) [1] [%] | herbicidal effect against SETVI (Setaria viridis) (Setaria viridis [2]) [%] | herbicidal effect against LOLMU (Lolium multiflorum) (Lolium multiflorum [3]) [%] | herbicidal effect against ECHCG (Echinochloa crus-galli) (Echinocloa crus-galli [4]) [%] | herbicidal effect against ALOMY (Alopecurus myosuroides) (Alopecurus myosuroides [5]) [%] | herbicidal effect AVEFA [6] [%] | herbicidal effect SETVI (Setaria viridis [7]) [%] | herbicidal effect LOLMU (Lolium multiflorum [8]) [%] | herbicidal effect ECHCG (Echinocloa crus-galli [9]) [%] | herbicidal effect ALOMY (Alopecurus myosuroides [10]) [%] | also measured |
| --- | --- | --- | --- | --- | --- | --- | --- | --- | --- | --- | --- |
| CCc1cc(C)cc(CC)c1C1=C(O)[C@H]2CC3(C[C@H]2C1=O)OCCO3 (relative stereo) [I-a-8] | 100 | 100 | 100 | 100 | 100 | 60 | 90 | 100 | 90 | 100 | % damage (maize; maize cultivar Magixx Duo (cycloxidim-tolerant), 14 days after application): 0%; % damage (maize; maize cultivar Magixx Duo (cycloxidim-tolerant), 27 days after application): 0%; % damage (maize; maize cultivar Oldham, 14 days after application): 94%; % damage (maize; maize cultivar Oldham, 27 days after application): 93%; Summer barley observed (%) (cereals; [12]): 10%; Summer barley observed (%) (cereals; [13]): 20%; Summer barley observed (%) (cereals; [14]): 20%; Summer wheat observed (%) (cereals; 10 days after application, 12.5 g of a.i./ha): 20%; Summer wheat observed (%) (cereals; [12]): 40% and 20%; Summer wheat observed (%) (cereals; [13]): 50% and 30%; Summer wheat observed (%) (cereals; [14]): 60% and 30% |
| CCc1cc(C)cc(CC)c1C1=C(O)[C@H]2C[C@@]3(COC(C)(C)O3)C[C@H]2C1=O [I-a-1] | – | – | – | – | – | 80 | 60 | 100 | 50 | 90 | pest or weed control at 80 g/ha ([1]; 504 h, Avena fatua, read-out: herbicidal effect against AVEFA (Avena fatua)): 90%; pest or weed control at 80 g/ha (Lolium multiflorum [3]; Lolium multiflorum, 504 h, read-out: herbicidal effect against LOLMU (Lolium multiflorum)): 100%; pest or weed control at 80 g/ha (Echinocloa crus-galli [4]; Echinochloa crus-galli, 504 h, read-out: herbicidal effect against ECHCG (Echinochloa crus-galli)): 100%; pest or weed control at 80 g/ha (Alopecurus myosuroides [5]; Alopecurus myosuroides, 504 h, read-out: herbicidal effect against ALOMY (Alopecurus myosuroides)): 100%; Penetration after 24 h ([11]; a.i. (0.2 g/l) + AS = ammonium sulphate (0.7 g/l)): 4%; Penetration after 24 h ([11]; a.i. (0.2 g/l) + Edenor ME SU 500 EW (2 g/l) + AS (0.7 g/l)): 13%; Penetration after 24 h ([11]; a.i. (0.2 g/l) + Edenor Me SU 500 EW (2 g/l)): 11.5%; Penetration after 24 h ([11]; a.i. (0.2 g/l) alone, average of eight to ten measurements): 2.5% |
| C=C1COC2(CC3C(=O)C(c4c(CC)cc(C)cc4CC)=C(OC(=O)C(C)C)C3C2)OC1 (centres unmarked) [I-b-13] | 100 | 100 | 100 | 100 | 100 | 80 | 100 | 100 | 100 | 100 | Summer barley observed (%) (cereals; [15]): 20%; Summer barley observed (%) (cereals; [16]): 50%; Summer wheat observed (%) (cereals; 28 days after application, 12.5 g of a.i./ha): 20%; Summer wheat observed (%) (cereals; 28 days after application, 25 g of a.i./ha): 40%; Summer wheat observed (%) (cereals; [15]): 80%; Summer wheat observed (%) (cereals; [16]): 85% |
